Reference: paper PMC9295568, “Dual Inhibition of Vacuolar-ATPase and TMPRSS2 Is Required for Complete Blockade of SARS-CoV-2 Entry into Cells” (Antimicrobial Agents and Chemotherapy, 2022)
Counter-ions that a name gives are not always drawn. Like-named read-outs stand apart in the source and are kept apart here.

Columns and labels:
Type in all cases: cell-based
[1] = test system: SARS-CoV-2 PsV (wild-type S protein); experiment: microbe, parasite or virus in culture; details: Severe acute respiratory syndrome coronavirus 2, HeLa-ACE2, read-out: IC50, inhibition of PsV entry, HeLa-ACE2 (-TMPRSS2), wild-type S PsV
[2] = Cell viability (CellTiter-Glo), HeLa-ACE2 cells; details: human, read-out: half-cytotoxic concentration (CC50)
Experimental: In order to confirm that the reduced luminescence was not related to cell toxicity, HeLa-ACE2 and Vero-TMPRSS2 cell viability upon incubation with serial dilutions of the sample compounds were tested in parallel to the neutralization assay. […] Cell viability was monitored by adding 50 μL of CellTiter-Glo reagent (Promega) to 200 μL of media containing cells. After a 10-minute incubation, 100 μL volume was transferred to a 96-well white plate (Sigma-Aldrich) to measure luminescence using a Synergy Neo2 Multi-Mode Assay Microplate Reader (Biotek Instruments). As an additional measure of cell toxicity Vero cell, lacking TMPRSS2, viability was measured using PrestoBlue (ThermoFisher). 10,000 cells/well of pre-seeded Vero cells were cocultured with the same serial dilutions of the sample compounds at 37°C for 48 h. At 48 h, 10 μL of PrestoBlue (ThermoFisher) was added to 100 μL of media containing cells. After a 2 h incubation, fluorescence was measured using a Spectromax m5e (Molecular Devices) at an excitation of 555 nm and emission of 585 nm. Data were plotted and half-cytotoxic concentration (CC50) values were calculated using Prims 9 (GraphPad).

[3] = test system: endosomal acidification in Vero cells; experiment: cells; details: for inhibition at 40 µM: Chlorocebus sabaeus, read-out: Percent Inhibition (%) of endosomal acidification
Experimental: Inhibition of endosomal acidification was measured using LysoTracker Red DND-99 (ThermoFisher). […] Data were plotted using Prism 9 (GraphPad).

[4] = Vero cells, 40 μM, singlet (n=1)

## CCN(CC)CCCC(C)Nc1ccnc2cc(Cl)ccc12 (centres unmarked) [chloroquine]
[1]
  IC50: 2.6 µM
[2]
  CC50: 25.7 µM

## COc1ccccc1OCCNCC(O)COc1cccc2[nH]c3ccccc3c12 (centres unmarked) [CARVEDILOL]
[3]; [4]
  inhibition at 40 µM: 55%

## CCC(=O)O[C@H]1CC[C@H]2[C@@H]3CCC4=CC(=O)CC[C@]4(C)[C@H]3CC[C@]12C [TESTOSTERONE PROPIONATE]
[3]; [4]
  inhibition at 40 µM: 64%

## O=C(c1ccc(OCCN2CCCCC2)cc1)c1c(-c2ccc(O)cc2)sc2cc(O)ccc12 [RALOXIFENE HYDROCHLORIDE]
[3]; [4]
  inhibition at 40 µM: 56%

## CCCCCCc1ccc(O)cc1O.Nc1c2ccccc2nc2ccccc12 [ACRISORCIN]
[3]; [4]
  Percent Inhibition (%) of endosomal acidification: 50%

## C=CC(C)(O)CCC=C(C)CCC=C(C)C (mixture of isomers) [NEROLIDOL]
[3]; [4]
  inhibition at 40 µM: 66%

## CCN(CC)CCCC(C)Nc1c2ccc(Cl)cc2nc2ccc(OC)cc12 (centres unmarked) [QUINACRINE HYDROCHLORIDE]
[3]; [4]
  inhibition at 40 µM: 63%

## CCOC(=O)[C@H](CCc1ccccc1)N[C@H]1CCc2ccccc2N(CC(=O)O)C1=O [BENAZEPRIL HYDROCHLORIDE]
[3]; [4]
  inhibition at 40 µM: 64%

## CN(C)CCOc1ccc(/C(=C(/CCCl)c2ccccc2)c2ccccc2)cc1 [TOREMIPHENE CITRATE]
[3]; [4]
  Percent Inhibition (%) of endosomal acidification: 68%

## CCCCCCCCNC(C)C(O)c1ccc(SC(C)C)cc1 (centres unmarked) [SULOCTIDIL]
[3]; [4]
  inhibition at 40 µM: 94%

## CN1CCN(CCCN2c3ccccc3Sc3ccc(C(F)(F)F)cc32)CC1 [TRIFLUOPERAZINE HYDROCHLORIDE]
[3]; [4]
  inhibition at 40 µM: 77%

## CN1CCCC(n2nc(Cc3ccc(Cl)cc3)c3ccccc3c2=O)CC1 (centres unmarked) [AZELASTINE HYDROCHLORIDE]
[3]; [4]
  inhibition at 40 µM: 59%

## CCC(C)(C)C(=O)O[C@H]1C[C@@H](C)C=C2C=C[C@H](C)[C@H](CC[C@@H]3C[C@@H](O)CC(=O)O3)[C@H]21 [SIMVASTATIN]
[3]; [4]
  inhibition at 40 µM: 84%

## CC(CN(C)C)CN1c2ccccc2Sc2ccccc21.CC(CN(C)C)CN1c2ccccc2Sc2ccccc21.O=C(O)C(O)C(O)C(=O)O (centres unmarked) [TRIMEPRAZINE TARTRATE]
[3]; [4]
  Percent Inhibition (%) of endosomal acidification: 78%

## CNCCC(Oc1ccc(C(F)(F)F)cc1)c1ccccc1 (centres unmarked) [FLUOXETINE]
[3]; [4]
  inhibition at 40 µM: 67%

## CN1CCN(CC/C=C2/c3ccccc3Sc3ccc(S(=O)(=O)N(C)C)cc32)CC1 [THIOTHIXENE]
[3]; [4]
  inhibition at 40 µM: 80%

## C[n+]1c2cc(N)ccc2cc2ccc(N)cc21.[Cl-] [ACRIFLAVINIUM HYDROCHLORIDE]
[3]; [4]
  Percent Inhibition (%) of endosomal acidification: 51%

## COC1=C(OC)C(=O)C(CCCCCCCCCCO)=C(C)C1=O [IDEBENONE]
[3]; [4]
  inhibition at 40 µM: 63%

## Cc1cc2nc3ccc(N(C)C)cc3[s+]c2cc1N [TOLONIUM CHLORIDE]
[3]; [4]
  inhibition at 40 µM: 84%

## Oc1cc(Cl)ccc1Oc1ccc(Cl)cc1Cl [TRICLOSAN]
[3]; [4]
  inhibition at 40 µM: 96%

## CN(C)CC/C=C1/c2ccccc2Sc2ccc(Cl)cc21 [CHLORPROTHIXENE HYDROCHLORIDE]
[3]; [4]
  inhibition at 40 µM: 57%

## Clc1ccc(COC(Cn2ccnc2)c2ccc(Cl)cc2Cl)cc1 (centres unmarked) [ECONAZOLE NITRATE]
[3]; [4]
  inhibition at 40 µM: 76%

## BITHIONATE SODIUM
[3]; [4]
  Percent Inhibition (%) of endosomal acidification: 67%

## CC(C)/N=c1\cc2n(-c3ccc(Cl)cc3)c3ccccc3nc-2cc1Nc1ccc(Cl)cc1 [CLOFAZIMINE]
[3]; [4]
  inhibition at 40 µM: 80%

## OC(c1cc(C(F)(F)F)nc2c(C(F)(F)F)cccc12)C1CCCCN1 (centres unmarked) [MEFLOQUINE]
[3]; [4]
  inhibition at 40 µM: 64%

## CCN(CC)CCOC(=O)C(c1ccccc1)C1CCCCC1 (centres unmarked) [DROFENINE HYDROCHLORIDE]
[3]; [4]
  inhibition at 40 µM: 58%

## OCCN1CCN(CCCN2c3ccccc3Sc3ccc(Cl)cc32)CC1 [PERPHENAZINE]
[3]; [4]
  inhibition at 40 µM: 93%

## CN(C)[C@@H](CCOc1cccc2ccccc12)c1ccccc1 [DAPOXETINE HYDROCHLORIDE]
[3]; [4]
  inhibition at 40 µM: 91%

## CCN(CC)Cc1cc(Nc2ccnc3cc(Cl)ccc23)ccc1O [amodiaquine]
[1]
  IC50: 2.5 µM
[2]
  CC50: 34.7 µM

## CCCCCCCCCCCCCCCC[N+](C)(C)Cc1ccccc1 [C[…]]
[3]; [4]
  inhibition at 40 µM: 90%

## COc1ccc(CCN2CCC(Nc3nc4ccccc4n3Cc3ccc(F)cc3)CC2)cc1 [ASTEMIZOLE]
[3]; [4]
  inhibition at 40 µM: 50%

## CC1CC(OC(=O)C(O)c2ccccc2)CC(C)(C)C1 (centres unmarked) [CYCLANDELATE]
[3]; [4]
  inhibition at 40 µM: 52%

## CCCCCCCCCc1ccc(O)cc1 [4-NONYLPHENOL]
[3]; [4]
  inhibition at 40 µM: 79%

## CC(C)COCC(CN(Cc1ccccc1)c1ccccc1)N1CCCC1 (centres unmarked) [BEPRIDIL HYDROCHLORIDE]
[3]; [4]
  inhibition at 40 µM: 71%

## C[CH2][Hg][S]c1ccccc1C(=O)[O-].[Na+] [THIMEROSAL]
[3]; 40 µM
  Percent Inhibition (%) of endosomal acidification: 81%

## Cc1cc(C(C#N)c2ccc(Cl)cc2)c(Cl)cc1NC(=O)c1cc(I)cc(I)c1O (centres unmarked) [CLOSANTEL]
[3]; [4]
  inhibition at 40 µM: 56%

## CCOC(=O)C1=C(COCCN)NC(C)=C(C(=O)OC)C1c1ccccc1Cl (centres unmarked) [AMLODIPINE BESYLATE]
[3]; [4]
  inhibition at 40 µM: 76%

## COc1cc2nc(N3CCN(C(=O)c4ccco4)CC3)nc(N)c2cc1OC [PRAZOSIN HYDROCHLORIDE]
[3]; [4]
  inhibition at 40 µM: 76%

## CC(C)=CCC/C(C)=C/CC/C(C)=C/CO [FARNESOL]
[3]; [4]
  inhibition at 40 µM: 76%

## O=C(Nc1ccc(Oc2ccc(Cl)cc2)c(Cl)c1)c1cc(I)cc(I)c1O [RAFOXANIDE]
[3]; [4]
  inhibition at 40 µM: 68%

## CN1[C@@H]2CC[C@H]1C[C@@H](OC(c1ccccc1)c1ccccc1)C2 [BENZTROPINE MESYLATE]
[3]; [4]
  inhibition at 40 µM: 50%

## CCCCc1oc2ccc(NS(C)(=O)=O)cc2c1C(=O)c1ccc(OCCCN(CCCC)CCCC)cc1 [DRONEDARONE HYDROCHLORIDE]
[3]; [4]
  inhibition at 40 µM: 85%

## CN(C)CCCN1c2ccccc2Sc2ccc(C(F)(F)F)cc21 [TRIFLUPROMAZINE HYDROCHLORIDE]
[3]; [4]
  inhibition at 40 µM: 86%

## OC(CNCC(O)C1CCc2cc(F)ccc2O1)C1CCc2cc(F)ccc2O1 (centres unmarked) [NEBIVOLOL HYDROCHLORIDE]
[3]; [4]
  inhibition at 40 µM: 52%

## O=c1[nH]c2ccccc2n1C1CCN(CCCC(c2ccc(F)cc2)c2ccc(F)cc2)CC1 [PIMOZIDE]
[3]; [4]
  inhibition at 40 µM: 54%

## COc1cc(NS(C)(=O)=O)ccc1Nc1c2ccccc2nc2ccccc12 [AMSACRINE]
[3]; [4]
  inhibition at 40 µM: 87%

## MEPARTRICIN
[3]; [4]
  Percent Inhibition (%) of endosomal acidification: 52%

## CCCCC/C=C\C/C=C\C/C=C\C/C=C\CCCC(=O)O [ARACHIDONIC ACID]
[3]; [4]
  inhibition at 40 µM: 64%

## CN(C)CCCN1c2ccccc2Sc2ccccc21 [PROMAZINE HYDROCHLORIDE]
[3]; [4]
  inhibition at 40 µM: 75%

## Cc1cc(C(C)(C)CC(C)(C)C)ccc1OCCOCC[N+](C)(C)Cc1ccccc1.[Cl-] [METHYLBENZETHONIUM CHLORIDE]
[3]; [4]
  Percent Inhibition (%) of endosomal acidification: 85%

## C[C@H]1CC[C@]2(NC1)O[C@H]1C[C@H]3[C@@H]4CC[C@H]5C[C@@H](O[C@@H]6O[C@H](CO)[C@H](O[C@@H]7O[C@H](CO)[C@@H](O)[C@H](O[C@@H]8OC[C@@H](O)[C@H](O)[C@H]8O)[C@H]7O[C@@H]7O[C@H](CO)[C@@H](O)[C@H](O)[C@H]7O)[C@H](O)[C@H]6O)CC[C@]5(C)[C@H]4CC[C@]3(C)[C@H]1[C@@H]2C [TOMATINE]
[3]; [4]
  inhibition at 40 µM: 72%

## CC(C)c1c(O)ccc2c1CC[C@H]1C(C)(C)CCC[C@]21C [TOTAROL]
[3]; [4]
  inhibition at 40 µM: 74%

## CN1CCC(=C2c3ccccc3CCc3sccc32)CC1.O=C(O)CC(O)C(=O)O [PIZOTYLINE MALATE]
[3]; [4]
  Percent Inhibition (%) of endosomal acidification: 50%

## CSc1ccc2c(c1)N(CCC1CCCCN1C)c1ccccc1S2 (centres unmarked) [THIORIDAZINE HYDROCHLORIDE]
[3]; Vero
  inhibition at 40 µM: 92%

## Cc1cc2c(C(C)C)c(O)c(O)c(C=O)c2c(O)c1-c1c(C)cc2c(C(C)C)c(O)c(O)c(C=O)c2c1O [GOSSYPOL]
[3]; [4]
  inhibition at 40 µM: 80%

## CN(C)c1ccc2nc3ccc(=[N+](C)C)cc-3sc2c1 [METHYLENE BLUE]
[3]; [4]
  inhibition at 40 µM: 85%

## C[C@@H](NCCCc1cccc(C(F)(F)F)c1)c1cccc2ccccc12 [CINACALCET HYDROCHLORIDE]
[3]; [4]
  inhibition at 40 µM: 91%

## CN1CCN(CCCN2c3ccccc3Sc3ccc(Cl)cc32)CC1 [PROCHLORPERAZINE EDISYLATE]
[3]; [4]
  inhibition at 40 µM: 73%

## O=C(CCCN1CCC(O)(c2ccc(Br)cc2)CC1)c1ccc(F)cc1 [BROMPERIDOL]
[3]; [4]
  inhibition at 40 µM: 50%

## CCN(CC)CCCC(C)Nc1c2ccc(Cl)cc2nc2ccc(OC)cc12 (centres unmarked) [quinacrine]
[1]
  IC50: 0.9 µM
[2]
  CC50: 1.7 µM

## CNCCCN1c2ccccc2CCc2ccccc21 [DESIPRAMINE HYDROCHLORIDE]
[3]; [4]
  inhibition at 40 µM: 50%

## CN(C)CCCN1c2ccccc2CCc2ccc(Cl)cc21 [CLOMIPRAMINE HYDROCHLORIDE]
[3]; [4]
  inhibition at 40 µM: 83%

## Cc1c(O)c(O)cc2c1CC=C1[C@@]2(C)CC[C@@]2(C)[C@@H]3C[C@](C)(C(=O)O)CC[C@]3(C)CC[C@]12C [DIHYDROCELASTROL]
[3]; [4]
  inhibition at 40 µM: 96%

## CN(C)CCCOc1nn(Cc2ccccc2)c2ccccc12 [BENZYDAMINE HYDROCHLORIDE]
[3]; [4]
  inhibition at 40 µM: 58%

## ABAMECTIN (avermectin B1a shown)
[3]; [4]
  Percent Inhibition (%) of endosomal acidification: 59%
